Assays:
[1] = molecular target: T1, M4 muscarinic receptor (Homo sapiens, UniProt P08173); assay: Functional mobilization of intracellular calcium (FLIPR), M4-CHO cells; type: cell-based; conditions: for Emax: 100% efficacy is the maximum response obtained using Carbachol as a control; for M4 Activity: M4-CHO cells, FLIPR calcium mobilization
T1 construct: expressed in transfected cells; host or cells: CHO (M4-CHO)
T1 sequence (P08173 1-479): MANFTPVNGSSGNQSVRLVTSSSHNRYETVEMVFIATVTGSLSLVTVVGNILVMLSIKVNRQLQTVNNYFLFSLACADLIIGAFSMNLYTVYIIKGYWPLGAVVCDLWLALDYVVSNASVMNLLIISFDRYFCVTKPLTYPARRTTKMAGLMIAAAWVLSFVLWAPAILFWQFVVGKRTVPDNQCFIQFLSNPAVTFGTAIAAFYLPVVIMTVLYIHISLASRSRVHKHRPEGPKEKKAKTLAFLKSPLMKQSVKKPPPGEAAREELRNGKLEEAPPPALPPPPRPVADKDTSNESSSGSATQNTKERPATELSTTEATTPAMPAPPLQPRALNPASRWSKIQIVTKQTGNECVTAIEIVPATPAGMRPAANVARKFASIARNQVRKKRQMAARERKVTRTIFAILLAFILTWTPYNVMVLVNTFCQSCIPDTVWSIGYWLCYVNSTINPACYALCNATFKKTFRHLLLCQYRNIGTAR
How it was run: (§1)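 CHO cells expressing M1 or M4, loaded with Fluo-3 AM or Calcium 3 dye with 1 mM probenecid, 0.5% DMSO final. Agonist mode: compound added directly; antagonist mode: 15 min pre-incubation (or co-application) before carbachol at EC80. Fluorescence recorded 60 s on FLIPR.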

[2] = molecular target: T2, M1 muscarinic receptor (Homo sapiens, UniProt P11229); assay: Functional mobilization of intracellular calcium (FLIPR), M1-CHO cells; type: cell-based; conditions: for Emax: 100% efficacy is the maximum response obtained using Carbachol as a control; for M1 Activity: M1-CHO cells, FLIPR calcium mobilization
T2 construct: expressed in transfected cells; host or cells: CHO (M1-CHO)
T2 sequence (P11229 1-460): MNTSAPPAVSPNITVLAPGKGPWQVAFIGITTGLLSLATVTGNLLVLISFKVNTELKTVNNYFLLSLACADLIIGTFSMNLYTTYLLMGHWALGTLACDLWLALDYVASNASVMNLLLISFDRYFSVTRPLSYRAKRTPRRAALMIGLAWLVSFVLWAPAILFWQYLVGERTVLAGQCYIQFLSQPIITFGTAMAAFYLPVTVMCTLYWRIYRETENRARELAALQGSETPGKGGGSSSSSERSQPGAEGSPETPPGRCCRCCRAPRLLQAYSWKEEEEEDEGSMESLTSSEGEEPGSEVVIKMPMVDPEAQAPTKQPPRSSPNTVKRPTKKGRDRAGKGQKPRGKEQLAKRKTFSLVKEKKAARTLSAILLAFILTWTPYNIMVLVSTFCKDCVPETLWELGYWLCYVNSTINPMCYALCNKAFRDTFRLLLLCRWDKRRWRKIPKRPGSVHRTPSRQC
How it was run: as §1

SMILES | Emax [1] | M4 Activity [1] | Emax [2] | M1 Activity [2]
CCOC(=O)N1C2CCC1CC(N1CCC3(CC1)CN(C(=O)OCCOC)Cc1ccccc13)C2 (stereo not shown) [compound 73] | 25 to 100% | +++ (activity was measured to be less than 1.0 μM) | 25 to 100% | +++ (activity was measured to be less than 1.0 μM)
CCOC(=O)N1C2CCC1CC(N1CCC3(CC1)CN(S(=O)(=O)c1cccc(Cl)c1)Cc1ccccc13)C2 (stereo not shown) [compound 253] | 25 to 100% | +++ (activity was measured to be less than 1.0 μM) | 25 to 100% | +++ (activity was measured to be less than 1.0 μM)
CCOC(=O)N1CCC(N2CCC3(CC2)CN(C(=O)c2ccccn2)Cc2ccccc23)CC1 [compound 151] | 25 to 100% | +++ (activity was measured to be less than 1.0 μM) | 25 to 100% | +++ (activity was measured to be less than 1.0 μM)
CN(C)S(=O)(=O)N1Cc2ccccc2C2(CCN(C3CC4CCC(C3)N4C(=O)OC3CCC3)CC2)C1 (stereo not shown) [compound 131] | 25 to 100% | +++ (activity was measured to be less than 1.0 μM) | 25 to 100% | +++ (activity was measured to be less than 1.0 μM)
CCOC(=O)N1C2CCC1CC(N1CCC3(CC1)CN(C(=O)C(O)(CC)CC)Cc1ccccc13)C2 (stereo not shown) [compound 190] | 25 to 100% | +++ (activity was measured to be less than 1.0 μM) | 25 to 100% | +++ (activity was measured to be less than 1.0 μM)
CCOC(=O)N1C2CCC1CC(N1CCC3(CC1)CN(C(=O)NC(C)C)Cc1ccccc13)C2 (stereo not shown) [compound 350] | 25 to 100% | +++ (activity was measured to be less than 1.0 μM) | 25 to 100% | +++ (activity was measured to be less than 1.0 μM)
O=C(OC1CCC1)N1Cc2ccccc2C2(CCN(C3CC4CCC(C3)N4C(=O)OC3CCC3)CC2)C1 (stereo not shown) [compound 194] | 25 to 100% | +++ (activity was measured to be less than 1.0 μM) | 25 to 100% | +++ (activity was measured to be less than 1.0 μM)
O=C1NC2(CCN(CC3CCCCC3)CC2)c2ccccc21 [compound 54] | 25 to 100% | + (activity was measured to be greater than 5.0 μM) | < 25% | + (activity was measured to be greater than 5.0 μM)
CCCC(=O)N1Cc2ccccc2C2(CCN(C3CCN(C(=O)OCC)CC3)CC2)C1 [compound 185] | 25 to 100% | +++ (activity was measured to be less than 1.0 μM) | 25 to 100% | +++ (activity was measured to be less than 1.0 μM)
CCC(=O)Oc1ccc(CN2CCC3(CC2)CN(C(C)=O)Cc2ccccc23)cc1 [compound 59] | < 25% | + (activity was measured to be greater than 5.0 μM) | < 25% | + (activity was measured to be greater than 5.0 μM)
CCOC(=O)N1CCC(N2CCC3(CC2)CN(Cc2ccccc2)Cc2ccccc23)CC1 [compound 167] | < 25% | +++ (activity was measured to be less than 1.0 μM) | 25 to 100% | ++ (activity was measured to be from 1.0 μM to 5.0 μM)
CC(=O)N1Cc2ccccc2C2(CCN(C3CCOCC3)CC2)C1 [compound 215] | 25 to 100% | + (activity was measured to be greater than 5.0 μM) | 25 to 100% | ++ (activity was measured to be from 1.0 μM to 5.0 μM)
CCOC(=O)N1CCC(N2CCC3(CC2)CN(C(=O)NC(C)C)Cc2ccccc23)CC1 [compound 104] | 25 to 100% | +++ (activity was measured to be less than 1.0 μM) | 25 to 100% | +++ (activity was measured to be less than 1.0 μM)
CCOC(=O)N1CCC(N2CCC3(CC2)CN(C(=O)NC2CCCCC2)Cc2ccccc23)CC1 [compound 163] | 25 to 100% | +++ (activity was measured to be less than 1.0 μM) | 25 to 100% | +++ (activity was measured to be less than 1.0 μM)
CCOC(=O)N1C2CCC1CC(N1CCC3(CC1)CN(c1cccc(OC)c1)Cc1ccccc13)C2 (stereo not shown) [compound 141, ethyl 3-(2-(3-methoxyphenyl)-2,3-dihydro-1H-spiro[isoquinoline-4,4′-piperidine]-1′-yl)-8-azabicyclo[3.2.1]octane-8-carboxylate] | 25 to 100% | +++ (activity was measured to be less than 1.0 μM) | 25 to 100% | +++ (activity was measured to be less than 1.0 μM)
CCOC(=O)N1CCC(N2CCC3(CC2)OC(=O)c2ccccc23)CC1 [compound 314, ethyl 4-(3-oxo-3H-spiro[isobenzofuran-1,4′-piperidine]-1′-yl)piperidine-1-carboxylate] | 25 to 100% | +++ (activity was measured to be less than 1.0 μM) | 25 to 100% | +++ (activity was measured to be less than 1.0 μM)
CCOC(=O)N1CCC(CN2CCC3(CC2)CN(C(=O)c2ccno2)Cc2ccccc23)CC1 [compound 214] | 25 to 100% | +++ (activity was measured to be less than 1.0 μM) | 25 to 100% | +++ (activity was measured to be less than 1.0 μM)
CC(=O)N1Cc2ccccc2C2(CCN(Cc3cc(C)ccc3F)CC2)C1 [compound 331] | < 25% | + (activity was measured to be greater than 5.0 μM) | < 25% | + (activity was measured to be greater than 5.0 μM)
CCOCCN1CCC2(CC1)CN(C(C)=O)Cc1ccccc12 [compound 256] | < 25% |  | < 25% | 
CCOC(=O)N1C2CCC1CC(N1CCC3(CC1)CN(C(=O)c1cc(C)oc1C)Cc1ccccc13)C2 (stereo not shown) [compound 149] | 25 to 100% | +++ (activity was measured to be less than 1.0 μM) | < 25% | + (activity was measured to be greater than 5.0 μM)
COc1cccc(OC)c1CN1CCC2(CC1)CN(C(C)=O)Cc1ccccc12 [compound 192] | 25 to 100% | + (activity was measured to be greater than 5.0 μM) | 25 to 100% | + (activity was measured to be greater than 5.0 μM)
CCOC(=O)N1CCC(N2CCC3(CC2)CN(C(=O)N2CCCCC2)Cc2ccccc23)CC1 [compound 211] | < 25% | + (activity was measured to be greater than 5.0 μM) | 25 to 100% | +++ (activity was measured to be less than 1.0 μM)
CC(=O)N1Cc2ccccc2C2(CCN(CC3CCN(C(=O)OC(C)C)CC3)CC2)C1 [compound 161] | < 25% | +++ (activity was measured to be less than 1.0 μM) | 25 to 100% | ++ (activity was measured to be from 1.0 μM to 5.0 μM)
CCCS(=O)(=O)N1Cc2ccccc2C2(CCN(C3CC4CCC(C3)N4C(=O)O[C@@H]3CCOC3)CC2)C1 (stereo partly shown) [compound 24] | 25 to 100% | +++ (activity was measured to be less than 1.0 μM) | 25 to 100% | +++ (activity was measured to be less than 1.0 μM)

Source: patent publication US7863449B2, “Modulators of muscarinic receptors” (Vertex Pharmaceuticals Incorporated, priority 2004, dated 2011)
